The results in this text go back to patent US20150125889A1, “IN VITRO DETECTION OF MICROORGANISMS WITH AZOREDUCTASE ACTIVITY” (BIOMÉRIEUX, priority 2012, published 2015).

The nature of this assay: Test of reduction of Methyl red by food matrices (Example 3). The arrangement: key to Increase in fluorescence over 24 hours: The symbol “−” means that there is no growth or increase in fluorescence of the medium indicating a reduction of the substrate over 24 hours. The note with it: for Increase in fluorescence over 24 hours: 35 mg/l of Methyl red in TSB, 250 nm/395 nm, 35° C. The method, then:
Nine food matrices, some of which have high enzymatic activity (for which the use of Tempo®TVC is not recommended), listed in Table VIII, are tested, in a microtitration plate, in the presence of 35 mg/l of Methyl red in TSB medium to which is added an antimicrobial cocktail combining 200 mg/l of chloramphenicol and 6 mg/l of gentamycin to inhibit the growth of bacteria and fungi. The matrices are tested at different concentrations: 1/400, 1/4000 and […]. To do this, 10 g of matrices are weighed out and dispersed by stomaching in 90 ml of Tryptone-salt solution, which corresponds to a 1/10 dilution, from which the test dilutions are made. The reduction of the substrate and the growth of the microorganisms are monitored using an Infinite® M200 Tecan microplate reader at 35° C. over 24 hours. The reduction of the Methyl red is monitored by reading the fluorescence with the wavelength pair 250 nm/395 nm. The potential growth of microorganisms is monitored by reading the absorbance at 660 nm. The symbol “−” means that there is no growth or increase in fluorescence of the medium indicating a reduction of the substrate over 24 hours.

As for `CN(C)c1ccc(/N=N/c2ccccc2C(=O)O)cc1` [Methyl red], the “Increase in fluorescence over 24 hours” value is “−” (Avocado + ATB); “−” (Brie de Meaux AOC cheese + ATB); “−” (Fresh tagliatelle + ATB); “−” (Melon + ATB); “−” (Microfiltered whole milk + ATB); “−” (Mussels + ATB). Further, the “Increase in fluorescence over 24 hours” value is “−” (Pink shrimps + ATB), “−” (Raw calf liver + ATB) and “−” (Salami + ATB). Besides, under “nine food matrices with antimicrobial cocktail, no growth of microorganisms”, the “reduction of the Methyl red by the food matrix (text on Table IX)” value was “no reduction”.
